{"source": "patent US20250025550A1", "about": "“ADJUVANT COMPOUNDS AND FORMULATIONS” (ADJUVANCE TECHNOLOGIES, INC., priority 2021, published 2025)", "key": {"[1]": {"assay": "Optical density (clarity) of TQL-1055 in HP-β-CD solution", "type": "physicochemical", "conditions": "for Dissolution of TQL-1055: heat and sonication one hour at 60° C.", "experimental": "(§1) Two solutions were prepared: (1) 15% w/v HP-β-CD in 1 ml of PBS, add TQL-1055 (crushed) to achieve 1 mg/ml; and (2) 20% w/v HP-β-CD in 1 ml of PBS; add TQL-1055 (crushed) to achieve 1 mg/ml. Both solutions were solubilized using heat and sonication for one hour at 60° C.\nOptical density shown below. Clarity is defined against background solvent optical density ([…]):\nThree solutions were prepared: (1) 15% w/v HP-β-CD in 1 ml of PBS, add TQL-1055 (crushed) to achieve 2 mg/ml; (2) 20% w/v HP-β-CD in 1 ml of PBS; add TQL-1055 (crushed) to achieve 2 mg/ml; and (3) 25% w/v HP-β-CD in 1 ml of PBS; add TQL-1055 (crushed) to achieve 2 mg/ml. Solutions were solubilized using heat and sonication for one hour at 60° C. […]"}, "[2]": {"assay": "pH of TQL-1055 HP-β-CD solutions (Example 1)", "type": "physicochemical", "experimental": "as §1"}, "[3]": {"assay": "Stability of TQL-1055 in HP-β-CD solution: clarity (optical density)", "type": "physicochemical", "conditions": "1 mg/ml TQL-1055, 20% w/v HP-β-CD in PBS", "experimental": "(§2) Solutions containing 20% w/v HP-β-CD and 1 mg/ml dissolved TQL-1055 were prepared according to the following procedure: (1) crush TQL-1055 and sonicate in PBS; (2) add HP-β-CD solution to create a final concentration of 1 mg/ml TQL-1055, 20% HP-β-CD in PBS buffer (3) sonicate for ˜30-60 minutes at 60C (4) obtain a clear solution having 1 mg/ml TQL-1055; 20% w/v HP-R-CD. Control samples containing 20% HP-β-CD were prepared. Optical density and pH were measured at t=1 day, 1 week, 1 month, and 2 months. HPLC was conducted at t=1 day, 1 week, 1 month, and 2 months."}, "[4]": {"assay": "Stability of TQL-1055 in HP-β-CD solution: pH", "type": "physicochemical", "conditions": "1 mg/ml TQL-1055, 20% w/v HP-β-CD in PBS", "experimental": "as §2"}, "[5]": {"assay": "Stability of TQL-1055 in HP-β-CD solution: HPLC", "type": "physicochemical", "design": "unit not given here", "conditions": "1 mg/ml TQL-1055, 20% w/v HP-β-CD in PBS", "experimental": "as §2"}, "[6]": {"assay": "Solubility in water at physiological pH", "type": "physicochemical", "conditions": "free acid form"}, "CD-i mice": {"system": "CD-i mice", "conditions": "mouse, in vivo"}, "[7]": {"conditions": "1 mg/ml TQL-1055 in 15% w/v HP-β-CD in PBS, 48 hours (stored at 5° C.)"}, "[8]": {"conditions": "1 mg/ml TQL-1055 in 15% w/v HP-β-CD in PBS, 48 hours (stored at RT)"}, "[9]": {"conditions": "1 mg/ml TQL-1055 in 20% w/v HP-β-CD in PBS, 48 hours (stored at 5° C.)"}, "[10]": {"conditions": "1 mg/ml TQL-1055 in 20% w/v HP-β-CD in PBS, 48 hours (stored at RT)"}, "[11]": {"conditions": "2 mg/ml in 15% w/v HP-β-CD in PBS (solution 1)"}}, "note": "Several values for one entry are separate records, joined by “and”; a condition that tells them apart may be missing. Identical values can stand only once.", "data": [{"smiles": "CC1O[C@@H](OC2C(O)[C@@H](NC(=O)CCCCCCCCCCC(=O)O)C(CO)O[C@H]2OC(=O)[C@]23CCC(C)(C)CC2C2=CCC4C5(C)CC[C@H](O)C(C)(C=O)C5CCC4(C)C2(C)CC3O)C(O)C(O)[C@H]1O[C@@H]1OC[C@@H](O)C(O)C1O", "note": "(stereo partly shown) [TQL-1055]", "values": [{"measurement": "Optical density", "setting": "[1]; 1 mg/ml TQL-1055 in 15% w/v HP-β-CD in PBS, 0 hour (after sonication)", "value": 0.055}, {"measurement": "Optical density", "setting": "[1]; 1 mg/ml TQL-1055 in 15% w/v HP-β-CD in PBS, 24 hours (stored at 5° C.)", "value": 0.051}, {"measurement": "Optical density", "setting": "[1]; 1 mg/ml TQL-1055 in 15% w/v HP-β-CD in PBS, 24 hours (stored at RT)", "value": 0.051}, {"measurement": "Optical density", "setting": "[1]; [7]", "value": 0.052}, {"measurement": "Optical density", "setting": "[1]; [8]", "value": 0.051}, {"measurement": "Optical density", "setting": "[1]; 1 mg/ml TQL-1055 in 20% w/v HP-β-CD in PBS, 0 hour (after sonication)", "value": 0.058}, {"measurement": "Optical density", "setting": "[1]; 1 mg/ml TQL-1055 in 20% w/v HP-β-CD in PBS, 24 hours (stored at 5° C.)", "value": 0.050}, {"measurement": "Optical density", "setting": "[1]; 1 mg/ml TQL-1055 in 20% w/v HP-β-CD in PBS, 24 hours (stored at RT)", "value": 0.050}, {"measurement": "Optical density", "setting": "[1]; [9]", "value": 0.056}, {"measurement": "Optical density", "setting": "[1]; [10]", "value": 0.051}, {"measurement": "Dissolution of TQL-1055", "setting": "[1]; 1 mg/ml in 15% and in 20% w/v HP-β-CD in PBS", "value": "dissolved completely"}, {"measurement": "Optical density", "setting": "[1]; 2 mg/ml TQL-1055 in 15% w/v HP-β-CD in PBS, 0 hour (after sonication), replicates", "value": "0.083, 0.083, (2×) and 0.083 (n = 3)"}, {"measurement": "Optical density", "setting": "[1]; 2 mg/ml TQL-1055 in 15% w/v HP-β-CD in PBS, 24 hours (stored at RT), replicates", "value": "0.081, 0.081"}, {"measurement": "Optical density", "setting": "[1]; 2 mg/ml TQL-1055 in 15% w/v HP-β-CD in PBS, 48 hours (stored at RT), replicates", "value": "0.067 and 0.068"}, {"measurement": "Optical density", "setting": "[1]; 2 mg/ml TQL-1055 in 20% w/v HP-β-CD in PBS, 0 hour (after sonication), replicates", "value": "0.061 and 0.066 and 0.068 (n = 3)"}, {"measurement": "Optical density", "setting": "[1]; 2 mg/ml TQL-1055 in 20% w/v HP-β-CD in PBS, 24 hours (stored at RT), replicates", "value": "0.054, 0.054"}, {"measurement": "Optical density", "setting": "[1]; 2 mg/ml TQL-1055 in 20% w/v HP-β-CD in PBS, 48 hours (stored at RT), replicates", "value": "0.049 and 0.053"}, {"measurement": "Optical density", "setting": "[1]; 2 mg/ml TQL-1055 in 25% w/v HP-β-CD in PBS, 0 hour (after sonication), replicates", "value": "0.052 (n = 3) and 0.049 and 0.051"}, {"measurement": "Optical density", "setting": "[1]; 2 mg/ml TQL-1055 in 25% w/v HP-β-CD in PBS, 24 hours (stored at RT), replicates", "value": "0.053 and 0.054"}, {"measurement": "Optical density", "setting": "[1]; 2 mg/ml TQL-1055 in 25% w/v HP-β-CD in PBS, 48 hours (stored at RT), replicates", "value": "0.057 and 0.055"}, {"measurement": "Clarity of solution", "setting": "[1]; [11]", "value": "not completely clear"}, {"measurement": "Optical density (OD)", "setting": "[1]; [11]", "value": "> 0.060"}, {"measurement": "Dissolution of TQL-1055", "setting": "[1]; 2 mg/ml in 20% (solution 2) and 25% (solution 3) w/v HP-β-CD in PBS", "value": "dissolved completely"}, {"measurement": "pH", "setting": "[2]; [7]", "value": "(pH = 7.26)"}, {"measurement": "pH", "setting": "[2]; [8]", "value": "(pH = 7.28)"}, {"measurement": "pH", "setting": "[2]; [9]", "value": "(pH = 7.28)"}, {"measurement": "pH", "setting": "[2]; [10]", "value": "(pH = 7.21)"}, {"measurement": "Clarity (OD)", "setting": "[3]; 5 C., 1 month", "value": "0.0485 and 0.051"}, {"measurement": "Clarity (OD)", "setting": "[3]; 5 C., 1 week", "value": "0.051 and 0.053"}, {"measurement": "Clarity (OD)", "setting": "[3]; 5 C., 2 month", "value": "0.058 and 0.050"}, {"measurement": "Clarity (OD)", "setting": "[3]; 5 C., Day 1", "value": "0.054 and 0.053"}, {"measurement": "Clarity (OD)", "setting": "[3]; 25 C., 1 month", "value": "0.053 and 0.0455"}, {"measurement": "Clarity (OD)", "setting": "[3]; 25 C., 1 week", "value": "0.049 and 0.052"}, {"measurement": "Clarity (OD)", "setting": "[3]; 25 C., 2 month", "value": "0.051 and 0.05"}, {"measurement": "Clarity (OD)", "setting": "[3]; 25 C., Day 1", "value": "0.052 and 0.050"}, {"measurement": "Clarity (OD)", "setting": "[3]; −20 C., 1 month", "value": "0.049 and 0.0475"}, {"measurement": "Clarity (OD)", "setting": "[3]; −20 C., 1 week", "value": "0.05 and 0.051"}, {"measurement": "Clarity (OD)", "setting": "[3]; −20 C., 2 month", "value": 0.054}, {"measurement": "Clarity (OD)", "setting": "[3]; −20 C., Day 1", "value": "0.056 and 0.052"}, {"measurement": "pH", "setting": "[4]; 5 C., 1 month", "value": "7.81 and 7.32"}, {"measurement": "pH", "setting": "[4]; 5 C., 1 week", "value": "7.32 and 7.25"}, {"measurement": "pH", "setting": "[4]; 5 C., 2 month", "value": "7.35 and 7.48"}, {"measurement": "pH", "setting": "[4]; 5 C., Day 1", "value": "7.47 and 7.43"}, {"measurement": "pH", "setting": "[4]; 25 C., 1 month", "value": "7.82 and 7.50"}, {"measurement": "pH", "setting": "[4]; 25 C., 1 week", "value": "7.35 and 7.00"}, {"measurement": "pH", "setting": "[4]; 25 C., 2 month", "value": "7.51 and 7.44"}, {"measurement": "pH", "setting": "[4]; 25 C., Day 1", "value": "7.45 and 7.47"}, {"measurement": "pH", "setting": "[4]; −20 C., 1 month", "value": "7.24 and 7.53"}, {"measurement": "pH", "setting": "[4]; −20 C., 1 week", "value": "7.19 and 7.26"}, {"measurement": "pH", "setting": "[4]; −20 C., 2 month", "value": "7.41 and 7.46"}, {"measurement": "pH", "setting": "[4]; −20 C., Day 1", "value": "7.35 and 7.41"}, {"measurement": "HPLC", "setting": "[5]; 5 C., 1 month", "value": "106.1 and 107.9"}, {"measurement": "HPLC", "setting": "[5]; 5 C., 1 week", "value": "104.4 and 108.9"}, {"measurement": "HPLC", "setting": "[5]; 5 C., 2 months", "value": "109 and 105"}, {"measurement": "HPLC", "setting": "[5]; 5 C., Day 1", "value": "105.4 and 109.4"}, {"measurement": "HPLC", "setting": "[5]; 25 C., 1 month", "value": "108.7 and 107.5"}, {"measurement": "HPLC", "setting": "[5]; 25 C., 1 week", "value": "109.2 and 106.9"}, {"measurement": "HPLC", "setting": "[5]; 25 C., 2 months", "value": 105}, {"measurement": "HPLC", "setting": "[5]; 25 C., Day 1", "value": "106.1 and 109.4"}, {"measurement": "HPLC", "setting": "[5]; −20 C., 1 month", "value": 109.6}, {"measurement": "HPLC", "setting": "[5]; −20 C., 2 months", "value": "105.3 and 102"}, {"measurement": "HPLC", "setting": "[5]; −20 C., Day 1", "value": "100 and 105.3"}, {"measurement": "solubility in water", "setting": "[6]", "value": "poor solubility in water at physiological pH"}, {"measurement": "Mortality (follow-on studies, text)", "setting": "CD-i mice", "value": "did not result in mortality"}]}]}
